Experimental data taken from US20050176691A1, “Combination therapy for the treatment of estrogen-sensitive disease” (priority 2000, published 2005).
Read-outs that look alike come from different tables or passages of the source.

Columns and labels:
[1] = during combination therapy with tamoxifen; persisted during months; cited from earlier work
[2] = tested on: primary metabolizing enzyme(s); test: Metabolism characteristics; format: in vitro ADME
[3] = Excretion characteristics; settings: in vivo
[4] = tested on: plasma protein; test: Distribution: plasma protein binding; format: in vitro ADME
[5] = tested on: estrogen receptor / enzyme (primary endocrine mechanism); test: Endocrine effect
[6] = Absorption characteristics; settings: in vivo
[7] = Other effects on ADME or PK (patient factors); settings: in vivo
[8] = Pharmacokinetic profile; format: in vivo

**Q.** With `N#Cc1ccc(C(c2ccc(C#N)cc2)n2cncn2)cc1` [letrozole, 4,4′-(1H-1,2,4-triazol-1-ylmethylene)bis-benzonitrile] as the compound, how does the “mean reduction of plasma levels of letrozole vs single agent letrozole” value [1] read?
**A.** The value was 37%.

**Q.** For `CN(C)CCOc1ccc(/C(=C(/CCCl)c2ccccc2)c2ccccc2)cc1` [Toremifene, (Z)-2-[4-(4-chloro-1,2-diphenyl-1-butenyl)phenoxy]-N,N-dimethylethanamine], which “induction of primary metabolizing enzyme” value [2] is on record?
**A.** The value was “no”.

**Q.** What about the “plasma levels affected by known inducers of cytochrome p-450 enzyme system” value [2] of the same compound?
**A.** The value was “yes”.

**Q.** What about the “primary enzyme(s) of metabolism” value [2] of the same compound?
**A.** Its value is “CYP3A4”.

**Q.** And the primary metabolite active [2]?
**A.** Its primary metabolite active is “yes”.

**Q.** And the significant pre-systemic metabolism [2]?
**A.** Its significant pre-systemic metabolism is “no”.

**Q.** What about the enterohepatic circulation [3] of the same compound?
**A.** Its enterohepatic circulation is “yes”.

**Q.** And the “primary route of elimination” value [3]?
**A.** Its value is “fecal”.

**Q.** And the enterohepatic circulation ([3]; listed as toremifene)?
**A.** The enterohepatic circulation was “subject to enterohepatic circulation”.

**Q.** What about the “principal plasma binding protein(s)” value [4] of the same compound?
**A.** Its value is “albumin”.

**Q.** And the fraction unbound ([4]; plasma)?
**A.** Its fraction unbound is under 0.005.

**Q.** What about the “direct inhibition of primary mechanism by combination drug” value [5] of the same compound?
**A.** The value was “no”.

**Q.** What about the “feedback stimulation on combination drug's primary mechanism” value [5] of the same compound?
**A.** The value was “yes”.

**Q.** What about the “Absorption: influenced by food” value [6] of the same compound?
**A.** The value was “no”.

**Q.** What about the “Absorption: route” value [6] of the same compound?
**A.** The value was “oral”.

**Q.** And the “effect of race of patient on ADME or PK” value [7]?
**A.** Its value is “unexpected”.

**Q.** And the “effect of sex of patient on ADME or PK” value [7]?
**A.** Its value is “no known effect”.

**Q.** And the “overall time to steady state” value ([8]; in vivo)?
**A.** The value was 4-6 weeks.

**Q.** And the half-life ([8]; in vivo, read-out: distribution t1/2 (time) (converted))?
**A.** The half-life was 4 h.

**Q.** And the half-life ([8]; in vivo, read-out: elimination t1/2 (time) (converted))?
**A.** The half-life was 120 h.

**Q.** And the clearance ([8]; in vivo, read-out: total clearance (volume/unit time) (converted))?
**A.** The clearance was 83.3 mL/min.

**Q.** What about the Tmax ([8]; plasma, oral) of the same compound?
**A.** The Tmax was 3 h.
